# Legend:
# Experiment in all cases: preservation efficacy test (PET), European Pharmacopoeia 5.1.3
# Type in all cases: cell-based
# Candida albicans = details: for number of microorganisms, 2 days / number of microorganisms, 7 days / number of microorganisms, 14 days / number of microorganisms, 28 days: PET, Candida albicans (CA); for number of microorganisms, 2 days: 2 days after inoculation
# Escherichia coli = details: for count at 2 days / count at 7 days / count at 14 days / count at 28 days: EC, use concentration in label; for number of microorganisms, 2 days / number of microorganisms, 7 days / number of microorganisms, 14 days / number of microorganisms, 28 days: PET, Escherichia coli (EC)
# Pseudomonas aeruginosa = system: Pseudomonas aeruginosa
# Aspergillus brasiliensis = details: for number of microorganisms, 2 days / number of microorganisms, 7 days / number of microorganisms, 14 days / number of microorganisms, 28 days: PET, Aspergillus brasiliensis (AB)
# Staphylococcus aureus = details: for count at 2 days / count at 7 days / count at 14 days / count at 28 days: SA, use concentration in label; for number of microorganisms, 2 days / number of microorganisms, 7 days / number of microorganisms, 14 days / number of microorganisms, 28 days: PET, Staphylococcus aureus (SA)
# [1] = CA, 28 days after inoculation, use concentration in label
# [2] = PA, 28 days after inoculation, use concentration in label
# [3] = 7 days after inoculation, o/w emulsion (Table 53)
# [4] = 14 days after inoculation, o/w emulsion (Table 53)
# [5] = 28 days after inoculation, o/w emulsion (Table 53)
# [6] = 2 days after inoculation, o/w emulsion (Table 53)
Structure (SMILES),"number of microorganisms, 2 days (Candida albicans)","number of microorganisms, 7 days (Candida albicans; 7 days after inoculation)","number of microorganisms, 14 days (Candida albicans; 14 days after inoculation)","number of microorganisms, 28 days (Candida albicans; 28 days after inoculation)","number of microorganisms, 2 days (Escherichia coli; 2 days after inoculation)","number of microorganisms, 7 days (Escherichia coli; 7 days after inoculation)","number of microorganisms, 14 days (Escherichia coli; 14 days after inoculation)","number of microorganisms, 28 days (Escherichia coli; 28 days after inoculation)","number of microorganisms, 2 days (Aspergillus brasiliensis; 2 days after inoculation)","number of microorganisms, 7 days (Aspergillus brasiliensis; 7 days after inoculation)","number of microorganisms, 14 days (Aspergillus brasiliensis; 14 days after inoculation)","number of microorganisms, 28 days (Aspergillus brasiliensis; 28 days after inoculation)","number of microorganisms, 2 days (Staphylococcus aureus; 2 days after inoculation)","number of microorganisms, 7 days (Staphylococcus aureus; 7 days after inoculation)","number of microorganisms, 14 days (Staphylococcus aureus; 14 days after inoculation)","number of microorganisms, 28 days (Staphylococcus aureus; 28 days after inoculation)",also measured
"CCCCCC(O)CO (centres unmarked) [0.2 % 1,2-heptanediol]",,,,,,,,,,,,,,,,,"count at 28 days (Candida albicans; [1]): 420.000; count at 2 days (Escherichia coli; 2 days after inoculation): 53.000; count at 7 days (Escherichia coli; 7 days after inoculation): 1.100; count at 14 days (Escherichia coli; 14 days after inoculation): 1; count at 28 days (Escherichia coli; 28 days after inoculation): 1; count at 2 days (Pseudomonas aeruginosa; PA, 2 days after inoculation, use concentration in label): 1; count at 7 days (Pseudomonas aeruginosa; PA, 7 days after inoculation, use concentration in label): 1; count at 14 days (Pseudomonas aeruginosa; PA, 14 days after inoculation, use concentration in label): 1; count at 28 days (Pseudomonas aeruginosa; [2]): 1; count at 2 days (Aspergillus brasiliensis; AB, 2 days after inoculation, use concentration in label): 790.000; count at 7 days (Aspergillus brasiliensis; AB, 7 days after inoculation, use concentration in label): 630.000; count at 14 days (Aspergillus brasiliensis; AB, 14 days after inoculation, use concentration in label): 230.000; count at 28 days (Aspergillus brasiliensis; AB, 28 days after inoculation, use concentration in label): 220.000; count at 2 days (Staphylococcus aureus; 2 days after inoculation): 84.000; count at 7 days (Staphylococcus aureus; 7 days after inoculation): 2.300; count at 14 days (Staphylococcus aureus; 14 days after inoculation): 1; count at 28 days (Staphylococcus aureus; 28 days after inoculation): 1"
"CCCCCCCCC(O)CO (centres unmarked) [1,2-decylene glycol, reference compound]",50.000,12.000,4.100,1,1,1,1,1,600.000,520.000,240.000,190.000,1,1,1,1,
"O=c1cccccc1O [Tropolone, reference compound]",1,1,1,1,190.000,1.100,1.100,1,690.000,26.000,1.400,1,110.000,3.100,3.100,1,
"CCCCCCCC(=O)NO [caprylhydroxamic acid, reference compound]",210.000,1,1,1,6.900,1,1,1,810.000,68.000,180,1,1,1,1,1,
"CCCCCCC(O)C(C)O (centres unmarked) [0.2% 2,3 Nonanediol]",,,,,,,,,,,,,,,,,"germ count CA, 7 days (Candida albicans; [3]): 440.000; germ count CA, 14 days (Candida albicans; [4]): 160.000; germ count CA, 28 days (Candida albicans; [5]): 3.800; germ count EC, 2 days (Escherichia coli; [6]): 860.000; germ count EC, 7 days (Escherichia coli; [3]): 230.000; germ count EC, 14 days (Escherichia coli; [4]): 760; germ count EC, 28 days (Escherichia coli; [5]): 1; germ count PA, 2 days (Pseudomonas aeruginosa; [6]): 1; germ count PA, 7 days (Pseudomonas aeruginosa; [3]): 1; germ count PA, 14 days (Pseudomonas aeruginosa; [4]): 1; germ count PA, 28 days (Pseudomonas aeruginosa; [5]): 1; germ count SA, 2 days (Staphylococcus aureus; [6]): 880; germ count SA, 7 days (Staphylococcus aureus; [3]): 1; germ count SA, 14 days (Staphylococcus aureus; [4]): 1; germ count SA, 28 days (Staphylococcus aureus; [5]): 1"
"CCCCCCC(O)CO (centres unmarked) [1,2-octanediol]",70.000,9.000,1,1,1,1,1,1,650.000,360.000,250.000,67.000,1,1,1,1,
CC(C)(C)C(=O)C(Oc1ccc(Cl)cc1)n1ccnc1 (centres unmarked) [0.4% Climbazole],,,,,,,,,,,,,,,,,"count at 14 days (Candida albicans; CA, 14 days after inoculation, use concentration in label): 760.000; count at 28 days (Candida albicans; [1]): 72.000; count at 2 days (Escherichia coli; 2 days after inoculation): 940.000; count at 7 days (Escherichia coli; 7 days after inoculation): 810.000; count at 14 days (Escherichia coli; 14 days after inoculation): 690; count at 28 days (Escherichia coli; 28 days after inoculation): 1; count at 28 days (Pseudomonas aeruginosa; [2]): 940.000; count at 2 days (Staphylococcus aureus; 2 days after inoculation): 340.000; count at 7 days (Staphylococcus aureus; 7 days after inoculation): 1; count at 14 days (Staphylococcus aureus; 14 days after inoculation): 1; count at 28 days (Staphylococcus aureus; 28 days after inoculation): 1"

# Reference: patent US20230293407A1, “Compositions Comprising (Bio)-Alkanediols with Antimicrobials for Product Protection” (Symrise AG, priority 2020, published 2023)
